Results reported in US7879792B2, “Synthetic peptide inhibitors of thrombin and thrombin activation of protease activated receptors 1 and 4” (The Regents of the University of Michigan, priority 2005, dated 2011).
Entries after “also recorded” stand apart in the source; their conditions may differ. Where a SMILES comes first, the peptide text is derived from it.

How the values were obtained:
[1] = tested on: γ-thrombin-induced platelet aggregation; experiment: γ-thrombin-induced platelet aggregation in human platelet-rich plasma; format: cell-based
Description: Fresh whole blood was collected and mixed with 0.013 M sodium citrate and platelet-rich plasma was prepared according to the method of Meloni et al., J. Biol. Chem. 266, 6786 (1991). Platelet-rich plasma with a normalized platelet count between 2-2.5×10^8 platelets/ml was added to a cuvette of an aggregometer (Chronlog Corp., Havertown, Pa.), standardized using the protocol of Meloni et al., supra. Peptides to be examined were added to the cuvette and the mixture stabilized for a few moments. Once the baseline was stabilized, γ-thrombin (10-70 nM) (Haematologic Technologies, Essex Junction, Vt.) was added to determine the minimal concentration of the agonist necessary to achieve full platelet aggregation. All investigations with peptides were performed using threshold concentrations of γ-thrombin. Aggregation was allowed to proceed for 5 minutes before stopping.
Table III is a tabulation of the library of peptides prepared and their influence on γ-thrombin-induced platelet aggregation in platelet-rich plasma. […] The numbers in the column represent the minimal concentration (mM) of the peptide that blocked 100% γ-thrombin-induced platelet aggregation of platelets in human platelet-rich plasma.
Human platelet samples were stimulated with 40 nM human gamma thrombin in each experiment.

[2] = tested on: normal human lung fibroblasts (NHLF); experiment: α-thrombin-induced calcium mobilization in normal human lung fibroblasts; format: cell-based; settings: 2 nM alpha thrombin
Description: The second assay developed to assess peptides from the combinatorial libraries uses inhibition of α-thrombin-induced calcium mobilization in fibroblasts. Normal human lung fibroblasts (NHLF) were purchased from Clonetics, San Diego, Calif., an affiliate of Bio-Wittaker, Walkersville, Md. The cytoplasmic free Ca^2+ concentration ([Ca^2+]i) was measured using the fluorescent Ca^2+ indicator fura-2 (Molecular Probes, Inc., Eugene, Oreg.). Suspension of fibroblasts in Hepes-Tyrode's buffer were loaded with fura-2 by incubation at 37° C. with 2 μM fura-2/acetoxymethyl ester for 45 minutes according to the method of Rasmussen et al., J. Biol. Chem. 268, 14322 (1993). The labeled fibroblasts were separated from excess probe by washing by centrifugation at 1000 rpm (180 xg). Aliquots of the labeled fibroblasts were transferred into a quartz cuvette with a magnetic stirrer, which was then placed in a thermostatically controlled chamber at 37° C. in a fluorescence spectrophotometer (Perkin-Elmer LS50B spectrofluorometer, Chicago, Ill.). Reagents, test peptide, and α-thrombin (0.25-2 nM), were sequentially added directly to the cuvette. The excitation wavelengths varied between 340 and 380 nm. Fluorescence was measured by recording emitted light at 510 nm as reported by Fisher et al., Mol Pharm. 35, 195 (1989). The minimum emission was determined on a solubilized fibroblast sample in the presence of 10 mM EDTA; maximum emission was determined on the same sample with 10 mM Ca^2+ added. The intrafibroblast free Ca^2+ concentration was calculated by the method of Grykiewicz et al., J. Biol. Chem. 260, 3440 (1985). The ratio of the fluorescence readings was calculated as R=340/380 nm and processed according to the equation [Ca^2+]i=KD((R−Rmin)/Rmax−R))(Sf2/Sb2) to determine the intrafibroblast free Ca^2+ concentration. The KD for fura-2 was assumed to be 224 nM. Rmax and Rmin are the maximum and minimum fluorescence ratios measured at the end of the experiment, respectively; Sf2 and Sb2 are the fluorescence values at 380 nm in the absence and presence of saturating [Ca^2+], respectively. The reaction was monitored for 3-5 minutes.

[3] = target: human α-thrombin (Homo sapiens, UniProt P00734); experiment: inhibition of α-thrombin hydrolysis of chromogenic substrate; format: biochemical; settings: Ki (μM) + SD, αIIa (2 nM), alpha-thrombin 2 nM, Sar-Pro-Arg-paranitroanilide
[4] = target: γ-thrombin; experiment: inhibition of γ-thrombin hydrolysis of chromogenic substrate; format: biochemical, human; settings: read-out: Ki (μM) + SD, γIIa (2 nM); gamma-thrombin 2 nM, Sar-Pro-Arg-paranitroanilide
[5] = tested on: C57BL6 mice; experiment: Rose Bengal model for arterial thrombosis, time to carotid artery occlusion; format: in vivo, mouse; settings: 0.4 to 1.61 mg/kg IP
Description: C57BL6 mice 6 to 16 weeks of age were anesthetized by intraperitoneal injection with sodium pentobarbital and placed in the supine position on a dissecting microscope (Nikon SMZ-2T, Mager Scientific, Inc., Dexter, Mich.). A midline surgical incision was made to expose the right common carotid artery and a Doppler flow probe (Model 0.5 VB, Transonic Systems, Ithaca, N.Y.) is placed under the vessel. The probe was connected to a flowmeter (Transonic Model T106) and was interpreted with a computerized data acquisition program (Windaq, DATAQ Instruments, Arkron, Ohio). Rose Bengal (4,5,6,7-tetrachloro-3′,6-dihydroxy-2,4,5,7-tetraiodospiro(isobenzofuran-1(3H), 9 [9H] xanthan)-3-1 dipotassium salt) (Fisher Scientific, Fair Lawn, N.J.) at 50 mg/kg in 0.9% saline) was then injected into the tail vein in a 0.12 ml volume (Eitzman et al., Blood 95, 577 (2000)). After injection into the tail vein, a green laser light (Melles Griot, Carlsbad, Calif.) at a wavelength of 540 nm was applied 6 cm from the carotid artery. Flow is monitored continuously from the onset of injury. The time to occlusion was determined only after the vessel remained closed with a cessation of blood flow for 20 min. […] These investigations indicate that these compounds are able to prevent thrombosis in the whole animal in vivo.

[6] = target: thrombin (Homo sapiens, UniProt P00734); settings: read-out: Ki, retrobinders to the active site of thrombin; cited from earlier work

**Q.** Which “Concentration of Peptide [mM] That Gives 100% Inhibition” value ([1]; 40 nM human gamma thrombin, human platelet-rich plasma) does the source give for Cc1ccc(C[C@H](NC(=O)[C@@H](CO)NC(=O)[C@@H]2CCCN2C(=O)[C@@H]2C[C@@H]3CCCC[C@@H]3N2C(=O)[C@H](N)CCCNC(=N)N)C(N)=O)cc1 [rOicPsF(p-Me), D-Arg-Oic-Pro-D-Ser-Phe(p-Me)] (HELM PEPTIDE1{[dR].[O=C([C@@H]1C[C@@H]2CCCC[C@@H]2N1[*:1])[*:2]].P.[dS].[Cc1ccc(C[C@H](N[*:1])C(=O)[*:2])cc1].[am]}$$$$V2.0) here?
**A.** 0.016 mM

**Q.** What about the “concentration that abolished γ-thrombin-induced platelet aggregation” value ([1]; 40 nM γ-thrombin) of the same molecule?
**A.** 16 µM

**Q.** And the “alpha thrombin-induced calcium mobilization” value ([2]; 0.00038 mM peptide)?
**A.** full recovery

**Q.** What about the “inhibition of thrombin-induced calcium mobilization” value ([2]; 0.003 mM peptide) of the same molecule?
**A.** 59%

**Q.** And the “inhibition of thrombin-induced calcium mobilization” value ([2]; 0.08 mM peptide)?
**A.** 97%

**Q.** What about the Ki [3] of the same molecule?
**A.** 6.4 to 10.6 µM

**Q.** And the Ki [4]?
**A.** 42.2 ± 6 µM

**Q.** What about the “time to occlusion of the mouse right carotid artery” value [5] of the same molecule?
**A.** significant prolongation; also recorded: prolonged

**Q.** Which Ki [6] does the source give for “β-Ala-Lys-2Lys-4(Arg-Pro-Pro-Gly-Phe) [MAP4-RPPGF]” here?
**A.** 1750 µM
